Results taken from patent US8618169B2, “Derivatives of N-phenylanthranilic acid and 2-benzimidazolone as potassium channel and/or neuron activity modulators” (Ramot at Tel-Aviv University Ltd., priority 2002, dated 2013).

Key:
Format in all cases: cell-based
KCNQ2/Q3 = KCNQ2/Q3 (Homo sapiens, UniProt O43525+O43526); assay: Opener potency on KCNQ2/Q3 by leftward shift of half-activation potential (ΔV50) versus concentration, Hill fit; set-up: expressed in transfected cells; details: compound alone
homomeric KCNQ2 channels = target: T1, homomeric KCNQ2 channels (Homo sapiens, UniProt O43526); assay: Homomeric KCNQ2 channels expressed in CHO cells, patch-clamp; details: 50 μM
T1 construct: expressed in transfected cells; host or cells: CHO cells

F-11 neuronal cells = assay: Spiking activity and membrane potential of F-11 neuronal cells, current-clamp; details: 10 μM
Method: F-11 neuronal cells were similarly cultured in F-12 Ham media containing 2 mM 1-glutamine supplemented with 10% fetal bovine serum, HAT supplement and antibiotics.
For current measurements in CHO cells, recordings were performed 40 hours following transfection, using the whole-cell configuration of the patch-clamp technique [Hamill et al., Nature 294: 462-464 (1981)]. Signals were amplified using an Axopatch 200B patch-clamp amplifier (Axon Instruments, Foster City, Calif., USA), sampled at 2 kHz and filtered at 800 Hz via a 4-pole Bessel low pass filter. Data were acquired using pClamp 8.1 software (Axon Instruments, Foster City, Calif., USA) and an Elonex Pentium III computer in conjunction with a DigiData 1322A interface (Axon Instruments, Foster City, Calif., USA). The patch pipettes were pulled from borosilicate glass (Warner Instrument. Corp., Hamden, Conn., USA) with a resistance of 2-5 MΩ and were filled with (in mM): 130 KCl, 1 MgCl2, 5 K2ATP, 5 EGTA, 10 HEPES, adjusted with KOH at pH 7.4 (290 mOsm). The external solution contained (in [mM]): 140 NaCl, 4 KCl, 1.8 CaCl2, 1.2 MgCl2, 11 glucose, 5.5 HEPES, adjusted with NaOH at pH 7.4 (310 mOsm). Series resistances (3-13 MΩ) were compensated (75-90%) and periodically monitored. For current-clamp measurements of rat cortical neurons, recordings were performed 10-14 days after plating, while rat DRG neurons recordings were performed 3 days after plating. The patch pipettes were filled with (in [mM]): 135 KCl, 1 K2ATP, 1 MgATP, 2 EGTA, 1.1 CaCl2, 5 glucose, 10 HEPES, adjusted with KOH at pH 7.4 (315 mOsm). The external solution contained (in [mM]): 140 NaCl, 4 KCl, 2 CaCl2, 2 MgCl2, 5 glucose, 10 HEPES, adjusted with NaOH at pH 7.4 (325 mOsm). For evoking the neuronal action potentials, 50-300 pA currents were injected into the cells for 800 ms (square pulse). Recordings were sampled at 5 kHz and filtered at 2 KHz via a 4-pole Bessel low pass filter. […]

COX (Cyclooxygenase) = assay: COX activity assay in C-26 cells (PGE2 radioimmunoassay)
Method: C-26 cells were plated on 24-well plates using RPMI medium. Different concentrations of the tested compound were added thereto and the cells were incubated for 30 minutes at 37° C. 30 μM exogenic arachidonic acid was then added and incubation was continued for 20 minutes (37° C.), so as to allow the cells to synthesize PGE2. Indomethacin was added thereafter (10 μM), to stop and completely block the activity. Then, the upper solution was removed into clean 24-wells. To the remained cells 100 μl NaOH (1M) were added to induce cytolysis, and the cells were left for later protein measurement. The solution removed to the new 24-well was used for a radioimmunoassay. The COX activity was estimated by calculating the ng PGE2/mg protein parameter.

CA1 pyramidal neurons = assay: Bursting and spike ADP of CA1 pyramidal neurons in rat hippocampal slices, current-clamp
Method: Using selective blockers and openers, it was recently shown that M-channels critically modulate the firing pattern of pyramidal hippocampal neurons by controlling the strength, duration and escalation into bursts of spike after depolarization (Yue and Yaari J. Neurosci., 24(19):4614-24, 2004).
To evaluate the effect of Compound 6 on the spike ADP, a brief depolarizing current pulse was injected to the neurons to elicit a solitary spike.

## Cc1ccc(Cl)c(Nc2ccccc2C(=O)O)c1Cl [Compound 1, Meclofenamic acid]
KCNQ2/Q3; Hill fit
  Hill coefficient ηH: 2.1±0.5
KCNQ2/Q3; Hill fit, read-out: EC50 of leftward shift of the half-activation potential (ΔV50)
  EC50: 25.7 ± 1.1 µM
KCNQ2/Q3
  maximal left-shift of the half-activation potential (ΔV50): −20±3 mV
Homomeric KCNQ2 channels; CHO cells
  leftward shift in the activation curve of KCNQ2 channels: −26.9 mV
Homomeric KCNQ2 channels; stepped from −85 mV to −40 mV
  increase of KCNQ2 current amplitude: 240±26%
Homomeric KCNQ2 channels; control 92.6±3.9 msec
  time constant of deactivation τdeact of KCNQ2 with compound: 152.7 ± 4.9 ms
Homomeric KCNQ2 channels; control −23.6±2.2 mV
  V50 of KCNQ2 activation with compound: −50.5±1.4 mV

## O=C(Cc1ccccc1Nc1c(Cl)cccc1Cl)NCCOCCO [Compound 6]
F-11 neuronal cells
  effect on spikes generated in F-11 cells: completely and reversibly blocks
  hyperpolarization of the membrane potential: 9±3 mV
F-11 neuronal cells; FIG. 26, from −59 mV
  membrane potential of the F-11 neuronal cell with compound: −67 mV
COX (Cyclooxygenase)
  COX inhibition activity (in words): do not exhibit COX inhibition activity
COX (Cyclooxygenase); C-26 cells
  IC50: > 30 µM
COX (Cyclooxygenase); concentration of up to 10 μM
  effect on COX activity: did not block
CA1 pyramidal neurons; 25 μM, long suprathreshold depolarizing current pulses
  effect on burst spiking: suppression of the burst
CA1 pyramidal neurons; solitary spike, control 193.8±49.7 mV msec
  ADP size with compound: 117.1±40.6 mV msec
